In publication PMC7235863, “Benzamide Derivatives Targeting the Cell Division Protein FtsZ: Modifications of the Linker and the Benzodioxane Scaffold and Their Effects on Antimicrobial Activity” (Antibiotics, 2020):
≈ marks a conversion by molar mass, not a printed value. Where two headings read alike, the source gives them in different places.

Key:
MDRSA 11.7 = experiment: Broth microdilution MIC, MDRSA 11.7; type: cell-based, Staphylococcus aureus
Description: (§1) Antimicrobial activity of 1–8 was evaluated on both Gram-positive (Table 3) and Gram-negative (Table 4) species. As a continuation of our previous studies, considering the Gram-positive S. aureus, we chose a methicillin-sensitive S. aureus (MSSA, ATCC 29213), a methicillin-resistant S. aureus (MRSA, ATCC 43300) and two clinical isolates of S. aureus showing multi-drug resistance (MDRSA).
(§2) Antibacterial activities of compounds were determined by the broth microdilution method against MDRSA 11.7, MDRSA 12.1 and E. coli N43 following the European Committee on Antimicrobial Susceptibility Testing (EUCAST) recommendations and Clinical and Laboratory Standards Institute (CLSI) guidelines. Strains MDRSA ST-11.7 and ST-12.1 were obtained through the interlaboratory control organized by the EU Reference Laboratory—Antimicrobial Resistance. Only data on their resistance to antibiotics are known, but other data are not available.
(§3) Bacterial suspension of specific bacterial strain equivalent to 0.5 McFarland turbidity standard was diluted with cation-adjusted Mueller Hinton broth with TES (Thermo Fisher Scientific), to obtain a final inoculum of 10^5 CFU/mL. Compounds dissolved in DMSO and inoculum were mixed together and incubated for 20 h at 37 °C. After incubation, the minimal inhibitory concentration (MIC) values were determined by visual inspection as the lowest dilution of compounds showing no turbidity. Tetracycline was used as a positive control on every assay plate.

MDRSA 12.1 = experiment: Broth microdilution MIC, MDRSA 12.1; type: cell-based, Staphylococcus aureus
Description: as §1, §2, §3

MRSA ATCC 43300 = experiment: MIC/MBC determination in LB broth, MRSA; type: cell-based, Staphylococcus aureus
Description: (§4) Normal human lung fibroblasts (MRC-5) were grown in Dulbecco’s modified Eagle’s medium (DMEM) supplemented with 10% calf serum, 100 U/mL penicillin and […] streptomycin in an incubator at 5% CO2 atmosphere and 37 °C. The Gram-positive Staphylococcus aureus (methicillin-sensitive, MSSA ATCC 29213, and methicillin-resistant, MRSA ATCC 43300) and the Gram-negative Escherichia coli (ESBL, extended-spectrum beta-lactamase-positive) bacterial cells were grown in Luria-Bertani broth (LB) at 37 °C under constant shaking at 300 rpm.
(§5) The antibacterial activity was tested on both a methicillin-sensitive and a methicillin-resistant S. aureus strain, and an ESBL E. coli clinical isolate. All the compounds were dissolved at the final concentration of 20 mg/mL in dimethyl sulfoxide (DMSO) and serially diluted in LB. Fresh cell cultures were used at 10^5 cells/mL in a final volume of 2 mL. Each bacterial sample was grown with different compound concentrations that ranged from 100 to 0.1 μg/mL. […] To determine the MBC, the bacteria were then washed three times with LB, centrifuged at 900× g for 10 min at 4 °C, and the pellet resuspended in fresh LB. After overnight incubation at 37 °C, the absence of growth was confirmed by OD measurement. The presence of antibacterial activity, at any concentration tested, was established for values of absorbance < 0.1 OD600. All tests were performed in quadruplicate and for each series of experiments, both positive (no compounds) and negative (no bacteria) controls were included.

MSSA ATCC 29213 = experiment: MIC/MBC determination in LB broth, MSSA; type: cell-based, Staphylococcus aureus; details: MSSA ATCC 29213
Description: as §4, §5

E. coli ATCC 25922 = experiment: MIC on reference sensitive E. coli; type: cell-based, Escherichia coli
Excerpt: (§6) We thus tested 1–8 and III initially on the reference sensitive E. coli ATCC 25922 and on the extended-spectrum of beta-lactamase-positive (ESBL) E. coli, as Gram-negative bacteria. Moreover, in order to evaluate the susceptibility of this series of compounds to the efflux pump AcrAB, we employed also the above-mentioned E. coli N43, which is the knockout of the AcrAB cell membrane pump.

MRC-5 cells = experiment: MTT cytotoxicity assay; type: cell-based, human; details: MRC-5, concentration reducing cell viability by 90%, 24-h incubation
Description: The compounds showing the most promising activities vs. MRSA were also assessed for their cytotoxicity on human MRC-5 cells. TD90, the concentration (µg/mL) able to reduce by 90% the viability of these cells, was determined together with the therapeutic index (TI), expressed as the ratio between TD90 and MBC values.
as §4
Compounds showing an antibacterial activity at a concentration lower than 10 μg/mL were serially diluted in DMEM and tested on MRC-5 cells by the MTT cytotoxicity assay (Sigma, St Louis, MO, USA). Cells (10^4 cells/well) were tested in a 96-well plate, in quadruplicate, using serially two-fold-diluted concentrations of the compound in 100 μL DMEM medium. After a 24-h incubation, the compound was removed, and the cells were overlaid with 1 mg/mL MTT in 100 μL serum-free DMEM for 3 h at 37 °C. The MTT solution was then replaced with DMSO for 10 min, and the absorbance was measured at 570 nm. The percentage of cytotoxicity was calculated by the formula [100 − (sample OD/untreated cells OD) × 100]. The compound concentration reducing cell viability by 90% was defined as the TD90 cytotoxic dose. The “therapeutic index” (TI) was also determined and defined as the ratio between TD90 and the MBC values.

E. coli N43 = experiment: Broth microdilution MIC, efflux-defective E. coli N43; type: cell-based, Escherichia coli
Description: as §6, §2, §3

ESBL E. coli = experiment: MIC in LB broth, ESBL E. coli clinical isolate; type: cell-based, Escherichia coli
Description: as §6, §4, §5

S. aureus ATCC 43300 = experiment: Transmission electron microscopy of septum formation; type: cell-based, Staphylococcus aureus; details: MRSA cultured overnight; 1 at 1 μg/mL, DFNB at 0.25 μg/mL
Excerpt: After having assessed the antimicrobial profile of this class of derivatives, we chose 1 to be further analyzed by transmission electron microscopy (TEM), in order to evaluate any morphological changes in septum formation, as done before as a simple FtsZ target validation assay. We cultured S. aureus ATCC 43300 alone or in the presence of 1 and 2,6-difluorononyloxybenzamide (DFNB) as a reference FtsZ inhibitor (positive control). […] These are the typical effects of the inhibition of FtsZ assembly and consequently of the block of bacterial cell division.
S. aureus ATCC 43300 (10^9 cells/mL) were cultured in the presence of 1 and DFNB (positive control), at the same concentrations used for optical microscopy and, after 16 h incubation at 37 °C, the cells were harvested and processed for transmission electron microscopy, as already described. Untreated S. aureus was used as negative control. After centrifugation at 3100× g for 5 min at room temperature, pelleted bacteria were fixed in 2.5% glutaraldehyde (Polysciences, Warrington, PA) in 0.1 M Na cacodylate buffer, pH 7.4, for 1 h at 4 °C, rinsed twice and post-fixed in Na cacodylate-buffered 1% OsO4 for 1 h at 4 °C. The samples were dehydrated through a series of graded ethanol solutions and propylene oxide and embedded in Poly/Bed 812 resin mixture. […]

[1] = Staphylococcus aureus, read-out: MBC
[2] = Staphylococcus aureus, read-out: MIC
[3] = Escherichia coli, read-out: MIC

## 3-(1,4-benzodithiane-2-yl)-2,6-difluorobenzamide [Compound 5]
MDRSA 11.7
  MIC: 8 µg/mL
MDRSA 12.1
  MIC: 8 µg/mL
MRSA ATCC 43300
  MBC: 10 µg/mL
  MBC/MIC: 2
  MIC: 5 µg/mL
MSSA ATCC 29213
  MBC: 10 µg/mL
  MBC/MIC: 2
  MIC: 5 µg/mL
E. coli ATCC 25922; E. coli ATCC 25922
  MIC: >100 µg/mL
MRC-5 cells
  TD90: 200 µg/mL
E. coli N43; E. coli N43 (AcrAB knockout)
  MIC: >128 µg/mL
ESBL E. coli
  MIC: >100 µg/mL

## 3-(1,4-benzoxathiane-2-yl)-2,6-difluorobenzamide [Compound 1]
MDRSA 11.7
  MIC: 2 µg/mL
MDRSA 12.1
  MIC: 2 µg/mL
S. aureus ATCC 43300
  Morphological changes in septum formation (TEM): strong alterations in the septum formation and bacterial desegregation
MRSA ATCC 43300
  MBC: 1 µg/mL
  MBC/MIC: 1
  MIC: 1 µg/mL
MSSA ATCC 29213
  MBC: 1 µg/mL
  MBC/MIC: 1
  MIC: 1 µg/mL
E. coli ATCC 25922; E. coli ATCC 25922
  MIC: >100 µg/mL
MRC-5 cells
  TD90: >800 µg/mL
E. coli N43; E. coli N43 (AcrAB knockout)
  MIC: 64 µg/mL
ESBL E. coli
  MIC: >100 µg/mL

## 3-(1,4-benzoxathiane-3-yl)-2,6-difluorobenzamide [Compound 3]
MDRSA 11.7
  MIC: 32 µg/mL
MDRSA 12.1
  MIC: 32 µg/mL
MRSA ATCC 43300
  MBC: 20 µg/mL
  MBC/MIC: 1
  MIC: 20 µg/mL
MSSA ATCC 29213
  MBC: 20 µg/mL
  MBC/MIC: 1
  MIC: 20 µg/mL
E. coli ATCC 25922; E. coli ATCC 25922
  MIC: >100 µg/mL
MRC-5 cells
  TD90: 200 µg/mL
E. coli N43; E. coli N43 (AcrAB knockout)
  MIC: 128 µg/mL
ESBL E. coli
  MIC: >100 µg/mL

## NC(=O)c1c(F)ccc(OCC2CS(=O)(=O)c3ccccc3O2)c1F (stereo not drawn) [Compound 2]
MRSA ATCC 43300; [1]
  MBC: > 100 µg/mL
MRSA ATCC 43300; [2]
  MIC: > 100 µg/mL
MSSA ATCC 29213; [1]
  MBC: > 100 µg/mL
MSSA ATCC 29213; [2]
  MIC: > 100 µg/mL
E. coli ATCC 25922; Escherichia coli, ATCC25922
  MIC: > 100 µg/mL
ESBL E. coli; [3]
  MIC: > 100 µg/mL

## NC(=O)c1c(F)ccc(OCC2COc3ccccc3S2(=O)=O)c1F (stereo not drawn) [Compound 4]
MRSA ATCC 43300; [1]
  MBC: > 100 µg/mL
MRSA ATCC 43300; [2]
  MIC: > 100 µg/mL
MSSA ATCC 29213; [1]
  MBC: > 100 µg/mL
MSSA ATCC 29213; [2]
  MIC: > 100 µg/mL
E. coli ATCC 25922; Escherichia coli, ATCC25922
  MIC: > 100 µg/mL
ESBL E. coli; [3]
  MIC: > 100 µg/mL

## NC(=O)c1c(F)ccc(OCCC2CSc3ccccc3O2)c1F (stereo not drawn) [Compound 6]
MDRSA 11.7; [2]
  MIC: 8 µg/mL (≈ 22.8 µM)
MDRSA 12.1; [2]
  MIC: 4 µg/mL (≈ 11.4 µM)
MRSA ATCC 43300
  MBC/MIC: 2
MRSA ATCC 43300; [1]
  MBC: 5 µg/mL (≈ 14.2 µM)
MRSA ATCC 43300; [2]
  MIC: 2.5 µg/mL (≈ 7.11 µM)
MSSA ATCC 29213
  MBC/MIC: 2
MSSA ATCC 29213; [1]
  MBC: 5 µg/mL (≈ 14.2 µM)
MSSA ATCC 29213; [2]
  MIC: 2.5 µg/mL (≈ 7.11 µM)
E. coli ATCC 25922; Escherichia coli, ATCC25922
  MIC: > 100 µg/mL
E. coli N43; Escherichia coli, N43
  MIC: > 128 µg/mL
ESBL E. coli; [3]
  MIC: > 100 µg/mL

## NC(=O)c1c(F)ccc(OCCC2COc3ccccc3O2)c1F (stereo not drawn) [Compound 7]
MDRSA 11.7; [2]
  MIC: 4 µg/mL (≈ 11.9 µM)
MDRSA 12.1; [2]
  MIC: 4 µg/mL (≈ 11.9 µM)
MRSA ATCC 43300
  MBC/MIC: 1
MRSA ATCC 43300; [1]
  MBC: 5 µg/mL (≈ 14.9 µM)
MRSA ATCC 43300; [2]
  MIC: 5 µg/mL (≈ 14.9 µM)
MSSA ATCC 29213
  MBC/MIC: 1
MSSA ATCC 29213; [1]
  MBC: 5 µg/mL (≈ 14.9 µM)
MSSA ATCC 29213; [2]
  MIC: 5 µg/mL (≈ 14.9 µM)
E. coli ATCC 25922; Escherichia coli, ATCC25922
  MIC: > 100 µg/mL
MRC-5 cells
  TD90: 380 µg/mL
E. coli N43; Escherichia coli, N43
  MIC: 8 µg/mL (≈ 23.9 µM)
ESBL E. coli; [3]
  MIC: > 100 µg/mL
